Reference: patent US10358436B2, “Kinase inhibitors and method of treating cancer” (University Health Network, priority 2010, dated 2019)
Structures can show the parent of a compound that is named as a salt.

molecular target: Aurora A (Homo sapiens (Human), UniProt O14965); assay: Aurora A inhibition assay (Z-Lyte); type: biochemical
Sequence (O14965 whole entry): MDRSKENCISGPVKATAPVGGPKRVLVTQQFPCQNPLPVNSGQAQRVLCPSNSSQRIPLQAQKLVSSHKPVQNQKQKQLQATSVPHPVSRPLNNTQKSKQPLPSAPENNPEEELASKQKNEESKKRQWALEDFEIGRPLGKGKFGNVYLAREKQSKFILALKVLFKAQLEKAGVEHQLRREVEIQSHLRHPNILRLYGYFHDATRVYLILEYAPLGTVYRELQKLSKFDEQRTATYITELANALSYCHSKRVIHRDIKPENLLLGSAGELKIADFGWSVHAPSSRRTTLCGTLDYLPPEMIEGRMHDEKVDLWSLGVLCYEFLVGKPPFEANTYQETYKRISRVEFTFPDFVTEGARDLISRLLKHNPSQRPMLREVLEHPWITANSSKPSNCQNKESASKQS

CCN1Cc2ccc(/C=C/c3n[nH]c4cc([C@@H]5C[C@@]56C(=O)Nc5ccc(OC)cc56)ccc34)cc2C1 (relative stereo) [Example A190, (1R*,2S*)-2-(3-((E)-2-(2-ethylisoindolin-5-yl)vinyl)-1H-indazol-6-yl)-5′-methoxyspiro[cyclopropane-1,3′-indolin]-2′-one 2,2,2-trifluoroacetate] and COc1ccc2c(c1)[C@]1(C[C@H]1c1ccc3c(/C=C/c4ccc(CN5CCOCC5)c(F)c4)n[nH]c3c1)C(=O)N2 [Example A199, (1R,2S)-(E)-2-(3-(3-fluoro-4-(morpholinomethyl)styryl)-1H-indazol-6-yl)-S-methoxyspiro[cyclopropane-1,3′-indolin]-2′-one 2,2,2-trifluoroacetate] cannot be ordered by inhibition at 1 µM: > 50% for the first, > 50% for the second.

Cc1ccc2c(c1)[C@]1(C[C@H]1c1ccc3c(/C=C/c4ccc(CN(C)C)cc4)n[nH]c3c1)C(=O)N2 (relative stereo) [Example A169, (1R*,2S*)-(E)-2-(3-(4-((dimethylamino)methyl)styryl)-1H-indazol-6-yl)-5′-methylspiro[cyclopropane-1,3′-indolin]-2′-one 2,2,2-trifluoroacetate] and CN(C)Cc1cccc(/C=C/c2n[nH]c3cc([C@@H]4C[C@@]45C(=O)Nc4ccccc45)ccc23)c1 (relative stereo) [Example A162, (1R*,2S*)-(E)-2-(3-(3-((dimethylamino)methyl)styryl)-1H-indazol-6-yl)spiro[cyclopropane-1,3′-indolin]-2′-one 2,2,2-trifluoroacetate] cannot be ordered by inhibition at 1 µM: > 50% for the first, > 50% for the second.

COc1ccc2c(c1)[C@]1(C[C@H]1c1ccc3c(-c4ccc(OCCN5CCCCC5)cc4)n[nH]c3c1)C(=O)N2 [Example A67, (1R,2S)-5′-methoxy-2-(3-(4-(2-(piperidin-1-yl)ethoxy)phenyl)-1H-indazol-6-yl)spiro[cyclopropane-1,3′-indolin]-2′-one 2,2,2-trifluoroacetate salt] and COc1ccc2c(c1)[C@]1(C[C@H]1c1ccc3c(-c4ccc(OCCN(C)C)cc4)n[nH]c3c1)C(=O)N2 [Example A69, (1R,2S)-2-(3-(4-(2-(dimethylamino)ethoxy)phenyl)-1H-indazol-6-yl)-5′-methoxyspiro[cyclopropane-1,3′-indolin]-2′-one 2,2,2-trifluoroacetate salt] cannot be ordered by inhibition at 1 µM: < 50% for the first, < 50% for the second.

COCCN1C(=O)[C@@]2(C[C@H]2c2ccc3c(/C=C/c4ccc(CN(C)C)cc4)n[nH]c3c2)c2ccccc21 [Example A131, (1R,2S)-(E)-2-(3-(4-((dimethylamino)methyl)styryl)-1H-indazol-6-yl)-1′-(2-methoxyethyl)spiro[cyclopropane-1,3′-indolin]-2′-one 2,2,2-trifluoroacetate] and CN1C(=O)[C@@]2(C[C@H]2c2ccc3c(/C=C/c4ccc(CN5CCOCC5)cc4)n[nH]c3c2)c2ccccc21 (relative stereo) [Example A87, (1R*,2S*)-(E)-1′-methyl-2-(3-(4-(morpholinomethyl)styryl)-1H-indazol-6-yl)spiro[cyclopropane-1,3′-indolin]-2′-one 2,2,2-trifluoroacetate] cannot be ordered by inhibition at 1 µM: > 50% for the first, > 50% for the second.

O=C1Nc2ccccc2[C@]12C[C@H]2c1ccc2c(I)n[nH]c2c1 [Example A10, (1R,2S)-2-(3-iodo-1H-indazol-6-yl)spiro[cyclopropane-1,3′-indolin]-2′-one] and O=C1Nc2ccc(F)cc2[C@]12C[C@H]2c1ccc2c(I)n[nH]c2c1 (relative stereo) [Example A40, (1R*,2S*)-5′-fluoro-2-(3-iodo-1H-indazol-6-yl)spiro[cyclopropane-1,3′-indolin]-2′-one] cannot be ordered by inhibition at 1 µM: < 50% for the first, < 50% for the second.

COc1ccc2c(c1)[C@]1(C[C@H]1c1ccc3c(/C=C/c4csc(CN5CCOCC5)c4)n[nH]c3c1)C(=O)N2 [Example A183, (1R,2S)-5′-methoxy-2-(3-((E)-2-(5-(morpholinomethyl)thiophen-3-yl)vinyl)-1H-indazol-6-yl)spiro[cyclopropane-1,3′-indolin]-2′-one 2,2,2-trifluoroacetate] and COc1ccc2c(c1)[C@]1(C[C@H]1c1ccc3c(/C=C/c4ccc(CN5CCOCC5)s4)n[nH]c3c1)C(=O)N2 [Example A105, (1R,2S)-5′-methoxy-2-(3-((E)-2-(5-(morpholinomethyl)thiophen-2-yl)vinyl)-1H-indazol-6-yl)spiro[cyclopropane-L3′-indolin]-2′-one hydrochloride] cannot be ordered by inhibition at 1 µM: > 50% for the first, > 50% for the second.

O=C1Nc2ccccc2[C@]12C[C@H]2c1ccc2c(/C=C/c3csc(CN4CCOCC4)c3)n[nH]c2c1 [Example A202, (1R,2S)-2-(3-((E)-2-(5-(morpholinomethyl)thiophen-3-yl)vinyl)-1H-indazol-6-yl)spiro[cyclopropane-1,3′-indolin]-2′-one 2,2,2-trifluoroacetate] and O=C1Nc2ccccc2[C@]12C[C@H]2c1ccc2c(/C=C/c3cc(F)c(CN4CCOCC4)c(F)c3)n[nH]c2c1 [Example A116, (1R,2S)-(E)-2-(3-(3,5-difluoro-4-(morpholinomethyl)styryl)-1H-indazol-6-yl)spiro[cyclopropane-1,3′-indolin]-2′-one 2,2,2-trifluoroacetate] cannot be ordered by inhibition at 1 µM: > 50% for the first, > 50% for the second.

Compared with COc1ccc2c(c1)[C@]1(C[C@H]1c1ccc3c(-c4ccc(N5CCC(O)CC5)nc4)n[nH]c3c1)C(=O)N2 (relative stereo) [Example A117, (1R*,2S*)-2-(3-(6-(4-hydroxypiperidin-1-yl)pyridin-3-yl)-1H-indazol-6-yl)-S-methoxyspiro[cyclopropane-1,3′-indolin]-2′-one 2,2,2-trifluoroacetate], COc1ccc2c(c1)[C@]1(CC1c1ccc3c(/C=C/c4ccc(N5CCN(C)CC5)nc4)n[nH]c3c1)C(=O)N2 (single isomer, unassigned) [Example A31, (1R*,2S*)-5′-methoxy-2-(3-((E)-2-(6-(4-methylpiperazin-1-yl)pyridin-3-yl)vinyl)-1H-indazol-6-yl)spiro[cyclopropane-1,3′-indolin]-2′-one] is higher in inhibition at 1 µM: < 50% for the first, > 50% for the second.

First: COc1ccc2c(c1)[C@]1(C[C@H]1c1ccc3c(I)n[nH]c3c1)C(=O)N2 [Example A7, (1R,2S)-2-(3-iodo-1H-indazol-6-yl)-5′-methoxyspiro[cyclopropane-1,3′-indolin]-2′-one]
Second: COc1ccc2c(c1)[C@]1(C[C@H]1c1ccc3c(/C=C/c4csc(CN(C)C)c4)n[nH]c3c1)C(=O)N2 (relative stereo) [Example A181, (1R*,2S*)-2-(3-4E)-2-(5-((dimethylamino)methyl)thiophen-3-yl)vinyl)-1H-indazol-6-yl)-5′-methoxyspiro[cyclopropane-1,3′-indolin]-2′-one 2,2,2-trifluoroacetate]
The inhibition at 1 µM of the first is lower: < 50% for the first, > 50% for the second.

Going from COc1ccc2c(c1)[C@]1(C[C@H]1c1ccc3c(-c4ccc(CN5CCOCC5)cc4)n[nH]c3c1)C(=O)N2 (relative stereo) [Example A139, (1R*,2S*)-5′-methoxy-2-(3-(4-(morpholinomethyl)phenyl)-1H-indazol-6-yl)spiro[cyclopropane-1,3′-indolin]-2′-one 2,2,2-trifluoroacetate] to COc1ccc2c(c1)[C@]1(C[C@H]1c1ccc3c(/C=C/c4ccc(CN5CCOCC5)cc4)n[nH]c3c1)C(=O)N2 (relative stereo) [Example A41, (1R*,2S*)-(E)-5′-methoxy-2-(3-(4-(morpholinomethyl)styryl)-1H-indazol-6-yl)spiro[cyclopropane-1,3′-indolin]-2′-one 2,2,2-trifluoroacetate], the inhibition at 1 µM rises from < 50% to > 50%.

COc1ccc2c(c1)[C@]1(C[C@H]1c1ccc3c(/C=C/c4ccc(OC5CCN(C)CC5)cc4)n[nH]c3c1)C(=O)N2 [Example A79, (1R,2S)-(E)-5′-methoxy-2-(3-(4-(1-methylpiperidin-4-yloxy)styryl)-1H-indazol-6-yl)spiro[cyclopropane-1,3′-indolin]-2′-one 2,2,2-trifluoroacetate salt] and COc1ccc2c(c1)[C@]1(C[C@H]1c1ccc3c(/C=C/c4ccc(CN5[C@H](C)CCC[C@@H]5C)cc4)n[nH]c3c1)C(=O)N2 [Example A203, (1R,2S)-(E)-2-(3-(4-((cis-2,6-dimethylpiperidin-1-yl)methyl)styryl)-1H-indazol-6-yl)-5′-methoxyspiro[cyclopropane-1,3′-indolin]-2′-one 2,2,2-trifluoroacetate] cannot be ordered by inhibition at 1 µM: > 50% for the first, > 50% for the second.

NC(=O)CN1C(=O)[C@@]2(C[C@H]2c2ccc3c(/C=C/c4ccc(CN5CCCCC5)cc4)n[nH]c3c2)c2ccccc21 (relative stereo) [Example A165, 2-((1R*,2S*)-(E)-2′-oxo-2-(3-(4-(piperidin-1-ylmethyl)styryl)-1H-indazol-6-yl)spiro[cyclopropane-1,3′-indoline]-1′-yl)acetamide 2,2,2-trifluoroacetate] and CN1CCc2ccc(/C=C/c3n[nH]c4cc([C@@H]5C[C@@]56C(=O)Nc5ccccc56)ccc34)cc2C1 [Example A65, (1R,2S)-2-(3-((E)-2-(2-methyl-1,2,3,4-tetrahydroisoquinolin-7-yl)vinyl)-1H-indazol-6-yl)spiro[cyclopropane-1,3′-indolin]-2′-one 2,2,2-trifluoroacetate salt] cannot be ordered by inhibition at 1 µM: > 50% for the first, > 50% for the second.

Cc1ccc(/C=C/c2n[nH]c3cc([C@@H]4C[C@@]45C(=O)Nc4ccccc45)ccc23)c(C)n1 (relative stereo) [Example A158, (1R*,2S*)-2-(3-((E)-2-(2,6-dimethylpyridin-3-yl)vinyl)-1H-indazol-6-yl)spiro[cyclopropane-1,3′-indolin]-2′-one] and COc1ccc2c(c1)[C@]1(C[C@H]1c1ccc3c(/C=C/c4ccc(N5CCN(C(C)C)CC5)cc4)n[nH]c3c1)C(=O)N2 (relative stereo) [Example A189, (1R*,2S*)-(E)-2-(3-(4-(4-isopropylpiperazin-1-yl)styryl)-1H-indazol-6-yl)-5′-methoxyspiro[cyclopropane-1,3′-indolin]-2′-one 2,2,2-trifluoroacetate] cannot be ordered by inhibition at 1 µM: > 50% for the first, > 50% for the second.

COc1ccc2c(c1)[C@]1(C[C@H]1c1ccc3c(-c4ccc(N5CCN(C(C)C)CC5)cc4)n[nH]c3c1)C(=O)N2 (relative stereo) [Example A96, (1R*,2S*)-2-(3-(4-(4-isopropylpiperazin-1-yl)phenyl)-1H-indazol-6-yl)-5′-methoxyspiro[cyclopropane-1,3′-indolin]-2′-one] was tested, and the inhibition at 1 µM was < 50%.
